What all share (assay): relative viability (nuclei count vs DMSO), 5 days (fraction); higher = more cells survive
Compound in the experiment “R406 + Olaparib”: COc1cc(Nc2ncc(F)c(Nc3ccc4c(n3)NC(=O)C(C)(C)O4)n2)cc(OC)c1OC [R406] + O=C(c1cc(Cc2n[nH]c(=O)c3ccccc23)ccc1F)N1CCN(C(=O)C2CC2)CC1 [Olaparib] (partner 8 µM)
A digest of the protocol:
(§1)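 Medians of duplicate plates are given as relative viability. That measure is the nuclei count in treated wells divided by the count in vehicle wells. Counts were taken on 4× images of lung cancer cell lines in 1536-well plates, 5 days after pin-tool dosing the day after seeding with one drug alone or a fixed anchor-drug dose plus five library-drug doses (not always all listed) in √10 steps.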

Compound in the experiment “R406 + Pictilisib”: COc1cc(Nc2ncc(F)c(Nc3ccc4c(n3)NC(=O)C(C)(C)O4)n2)cc(OC)c1OC [R406] + CS(=O)(=O)N1CCN(Cc2cc3nc(-c4cccc5[nH]ncc45)nc(N4CCOCC4)c3s2)CC1 [Pictilisib] (partner 1 µM)
A digest of the protocol:
as §1

Compound in the experiment “R406 + Bortezomib”: COc1cc(Nc2ncc(F)c(Nc3ccc4c(n3)NC(=O)C(C)(C)O4)n2)cc(OC)c1OC [R406] + CC(C)C[C@H](NC(=O)[C@H](Cc1ccccc1)NC(=O)c1cnccn1)B(O)O [Bortezomib] (partner 0.002 µM)
A digest of the protocol:
as §1

Compound in the experiment “Daporinad + Dasatinib”: O=C(/C=C/c1cccnc1)NCCCCC1CCN(C(=O)c2ccccc2)CC1 [Daporinad] + Cc1nc(Nc2ncc(C(=O)Nc3c(C)cccc3Cl)s2)cc(N2CCN(CCO)CC2)n1 [Dasatinib] (partner 0.075 µM)
A digest of the protocol:
as §1

As to NCI-H322M, the relative viability is 0.654 in the experiment with R406 + Olaparib (first compound 0.08 µM); 0.695 with R406 + Olaparib (first compound 0.253 µM); 0.826 with R406 + Olaparib (first compound 0.8 µM); 0.641 with R406 + Olaparib (first compound 2.53 µM); 0.488 in the experiment with R406 + Olaparib (first compound 8 µM); 0.519 in the experiment with R406 + Pictilisib (first compound 0.08 µM). In addition, the relative viability with R406 + Pictilisib (first compound 0.253 µM) is 0.484; with R406 + Pictilisib (first compound 0.8 µM), 0.57; with R406 + Pictilisib (first compound 2.53 µM), 0.235; with R406 + Pictilisib (first compound 8 µM) it was 0.333; with R406 + Bortezomib (first compound 0.08 µM), 1.19; in the experiment with R406 + Bortezomib (first compound 0.253 µM), 0.994. Further, the relative viability in the experiment with R406 + Bortezomib (first compound 0.8 µM) was found to be 1.19; with R406 + Bortezomib (first compound 2.53 µM), 0.534; in the experiment with R406 + Bortezomib (first compound 8 µM), 0.803; in the experiment with Daporinad + Dasatinib (first compound 0.0005 µM), 0.272; in the experiment with Daporinad + Dasatinib (first compound 0.001581 µM) it was 0.266; with Daporinad + Dasatinib (first compound 0.005 µM), 0.259. The relative viability with Daporinad + Dasatinib (first compound 0.01581 µM) was found to be 0.259.
As to NCI-H596, the relative viability is 0.626 with R406 + Olaparib (first compound 0.08 µM); 0.734 in the experiment with R406 + Olaparib (first compound 0.253 µM); 0.606 in the experiment with R406 + Olaparib (first compound 0.8 µM); 0.641 with R406 + Olaparib (first compound 2.53 µM); 0.377 with R406 + Olaparib (first compound 8 µM); 0.368 with R406 + Pictilisib (first compound 0.08 µM). The relative viability in the experiment with R406 + Pictilisib (first compound 0.253 µM) turned out to be 0.362; with R406 + Pictilisib (first compound 0.8 µM) it was 0.392; in the experiment with R406 + Pictilisib (first compound 2.53 µM), 0.316; with R406 + Pictilisib (first compound 8 µM), 0.252; with R406 + Bortezomib (first compound 0.08 µM), 1.1; with R406 + Bortezomib (first compound 0.253 µM) it was 1.28. Further, the relative viability with R406 + Bortezomib (first compound 0.8 µM) came to 0.758; with R406 + Bortezomib (first compound 2.53 µM) it was 0.984; with R406 + Bortezomib (first compound 8 µM) it was 0.475; with Daporinad + Dasatinib (first compound 0.0005 µM), 0.68; in the experiment with Daporinad + Dasatinib (first compound 0.001581 µM), 0.677; with Daporinad + Dasatinib (first compound 0.005 µM), 0.692. Further, the relative viability in the experiment with Daporinad + Dasatinib (first compound 0.01581 µM) came to 0.576.
With ABC-1, the relative viability with R406 + Olaparib (first compound 0.08 µM) came out at 0.77; with R406 + Olaparib (first compound 0.253 µM), 0.805; with R406 + Olaparib (first compound 0.8 µM) it was 0.923; in the experiment with R406 + Olaparib (first compound 2.53 µM), 0.501; with R406 + Olaparib (first compound 8 µM), 0.576; with R406 + Pictilisib (first compound 0.08 µM), 1. Also, the relative viability was found to be 0.817 in the experiment with R406 + Pictilisib (first compound 0.253 µM); 0.72 in the experiment with R406 + Pictilisib (first compound 0.8 µM); 0.393 with R406 + Pictilisib (first compound 2.53 µM); 0.45 with R406 + Pictilisib (first compound 8 µM); 0.399 in the experiment with R406 + Bortezomib (first compound 0.08 µM); 0.321 with R406 + Bortezomib (first compound 0.253 µM). The relative viability in the experiment with R406 + Bortezomib (first compound 0.8 µM) is 0.317; with R406 + Bortezomib (first compound 2.53 µM), 0.251; with R406 + Bortezomib (first compound 8 µM), 0.265; with Daporinad + Dasatinib (first compound 0.0005 µM), 0.481; in the experiment with Daporinad + Dasatinib (first compound 0.001581 µM), 0.595; with Daporinad + Dasatinib (first compound 0.005 µM), 0.511. Further, the relative viability in the experiment with Daporinad + Dasatinib (first compound 0.01581 µM) stood at 0.42.
Regarding NCI-H1666, the relative viability in the experiment with R406 + Olaparib (first compound 0.08 µM) amounted to 0.74; with R406 + Olaparib (first compound 0.253 µM), 0.797; with R406 + Olaparib (first compound 0.8 µM), 0.725; in the experiment with R406 + Olaparib (first compound 2.53 µM), 0.824; with R406 + Olaparib (first compound 8 µM) it was 0.687; with R406 + Pictilisib (first compound 0.08 µM), 0.431. Also, the relative viability with R406 + Pictilisib (first compound 0.253 µM) came to 0.555; with R406 + Pictilisib (first compound 0.8 µM), 0.515; with R406 + Pictilisib (first compound 2.53 µM), 0.323; with R406 + Pictilisib (first compound 8 µM), 0.359; with R406 + Bortezomib (first compound 0.08 µM), 0.803; in the experiment with R406 + Bortezomib (first compound 0.253 µM), 1.03. Besides, the relative viability with R406 + Bortezomib (first compound 0.8 µM) stood at 0.853; with R406 + Bortezomib (first compound 2.53 µM), 0.336; in the experiment with R406 + Bortezomib (first compound 8 µM), 0.617; in the experiment with Daporinad + Dasatinib (first compound 0.0005 µM) it was 0.746; in the experiment with Daporinad + Dasatinib (first compound 0.001581 µM), 0.871; in the experiment with Daporinad + Dasatinib (first compound 0.005 µM) it was 0.674. For the same cell line, the relative viability with Daporinad + Dasatinib (first compound 0.01581 µM) was 0.721.
Turning to NCI-H1993, the relative viability was 1.14 with R406 + Olaparib (first compound 0.08 µM); 1.02 with R406 + Olaparib (first compound 0.253 µM); 1.07 with R406 + Olaparib (first compound 0.8 µM); 0.992 in the experiment with R406 + Olaparib (first compound 2.53 µM); 0.918 with R406 + Olaparib (first compound 8 µM); 0.769 in the experiment with R406 + Pictilisib (first compound 0.08 µM). Besides, the relative viability with R406 + Pictilisib (first compound 0.253 µM) is 0.814; in the experiment with R406 + Pictilisib (first compound 0.8 µM), 0.862; in the experiment with R406 + Pictilisib (first compound 2.53 µM), 0.604; with R406 + Pictilisib (first compound 8 µM), 0.928; with R406 + Bortezomib (first compound 0.08 µM), 1.04; in the experiment with R406 + Bortezomib (first compound 0.253 µM), 1.12. The relative viability turned out to be 1.11 with R406 + Bortezomib (first compound 0.8 µM); 0.544 with R406 + Bortezomib (first compound 2.53 µM); 0.6 with R406 + Bortezomib (first compound 8 µM); 0.548 with Daporinad + Dasatinib (first compound 0.0005 µM); 0.481 with Daporinad + Dasatinib (first compound 0.001581 µM); 0.664 in the experiment with Daporinad + Dasatinib (first compound 0.005 µM). Besides, the relative viability with Daporinad + Dasatinib (first compound 0.01581 µM) was found to be 0.676.
Turning to NCI-H1975, the relative viability in the experiment with R406 + Olaparib (first compound 0.08 µM) was 0.706; with R406 + Olaparib (first compound 0.253 µM) it was 0.862; with R406 + Olaparib (first compound 0.8 µM), 0.783; with R406 + Olaparib (first compound 2.53 µM), 0.311; in the experiment with R406 + Olaparib (first compound 8 µM) it was 0.204; in the experiment with R406 + Pictilisib (first compound 0.08 µM), 0.29. The relative viability in the experiment with R406 + Pictilisib (first compound 0.253 µM) came to 0.297; with R406 + Pictilisib (first compound 0.8 µM) it was 0.319; in the experiment with R406 + Pictilisib (first compound 2.53 µM) it was 0.162; in the experiment with R406 + Pictilisib (first compound 8 µM), 0.142; in the experiment with R406 + Bortezomib (first compound 0.08 µM) it was 0.444; in the experiment with R406 + Bortezomib (first compound 0.253 µM), 0.39. The relative viability was 0.401 with R406 + Bortezomib (first compound 0.8 µM); 0.162 with R406 + Bortezomib (first compound 2.53 µM); 0.178 with R406 + Bortezomib (first compound 8 µM); 0.336 in the experiment with Daporinad + Dasatinib (first compound 0.0005 µM); 0.364 with Daporinad + Dasatinib (first compound 0.001581 µM); 0.356 with Daporinad + Dasatinib (first compound 0.005 µM). In addition, the relative viability with Daporinad + Dasatinib (first compound 0.01581 µM) was 0.38.

Values taken from the supplement of paper PMC10307832.
